In patent US20230075422A1, “USE OF FUCOSYLATION INHIBITOR FOR PRODUCING AFUCOSYLATED ANTIBODY” (BRISTOL-MYERS SQUIBB COMPANY, priority 2019, published 2023):

Columns and labels:
Format in all cases: cell-based
[1] = system: fucosylation of antibodies; assay: Percentage of nonfucosylated antibodies for antibodies grown in the presence of fucosylation inhibitors (FIG. 2A); details: antibodies grown in presence of inhibitor at 1 mM to 6 mM
Method: The level of fucosylation in an antibody preparation may be determined by any method known in the art, including but not limited to gel electrophoresis, liquid chromatography, and mass spectrometry. Unless otherwise indicated, for the purposes of the present invention, the level of fucosylation in an antibody preparation is determined by hydrophilic interaction chromatography (or hydrophilic interaction liquid chromatography, HILIC), essentially as described at Example 2. To determine the level of fucosylation of an antibody preparation, samples are denatured treated with PNGase F to cleave N-linked glycans, which are then analyzed for fucose content. LC/MS of full-length antibody chains is an alternative method to detect the level of fucosylation of an antibody preparation, but mass spectroscopy is inherently less quantitative.
Nonfucosylated antibody preparations may be analyzed to determine the percentage of afucosylated heavy chains essentially as follows.
Antibodies are first denatured using urea and then reduced using DTT (dithiothreitol). Samples are then digested overnight at 37° C. with PNGase F to remove N-linked glycans. […] The resulting labeled glycans are then resolved on a HILIC column and the eluted fractions are quantified by fluorescence and dried. […] Untreated samples and BKF-treated samples are then analyzed by liquid chromatography. […]

[2] = system: antibody production cell line; assay: Antibody titers of the same antibody preparations (FIG. 2B); details: same preparations as FIG. 2A, inhibitor 1 mM to 6 mM, compared with GDP-D-rhamnose
[3] = system: fucosylation of antibodies; assay: Electropherograms of antibody preparations, glycoform peaks (FIGS. 3A-3C); details: cells cultured with 6 mM or 10 mM inhibitor vs no inhibitor
Method: FIGS. 3A, 3B and 3C show electropherograms of antibody preparations made using cells cultured without a fucosylation inhibitor or in the presence of 6 mM or 10 mM Ac-GDP-D-rhamnose, respectively. Peaks for different glycoforms are indicated, with white boxes for fucosylated species and dark boxes for nonfucosylated species.

Row | Compound | percentage of nonfucosylated antibodies [1] | antibody titer (yield) [2] | proportion of nonfucosylated species (glycoforms) [3]
1 | Ac-GDP-D-rhamnose | as effective as GDP-D-rhamnose | less deleterious effect on titer | increase the proportion of nonfucosylated species
2 | C[C@H]1O[C@H](OP(=O)(O)OP(=O)(O)OC[C@H]2O[C@@H](n3cnc4c(=O)[nH]c(N)nc43)[C@H](O)[C@@H]2O)[C@@H](O)[C@@H](O)[C@@H]1O [GDP-D-rhamnose] | increasing the percentage of nonfucosylated antibodies |  | 
